The term pEC50 denotes the EC50 on a negative log10 scale, so that one unit is a factor of ten. A lower pEC50 goes with a large EC50.

What all share (type): cell-based
In one test the target is T1, GIP receptor (Homo sapiens, UniProt P48546).
T1 construct: expressed in transfected cells; host or cells: HEK293
T1 sequence (P48546 22-466): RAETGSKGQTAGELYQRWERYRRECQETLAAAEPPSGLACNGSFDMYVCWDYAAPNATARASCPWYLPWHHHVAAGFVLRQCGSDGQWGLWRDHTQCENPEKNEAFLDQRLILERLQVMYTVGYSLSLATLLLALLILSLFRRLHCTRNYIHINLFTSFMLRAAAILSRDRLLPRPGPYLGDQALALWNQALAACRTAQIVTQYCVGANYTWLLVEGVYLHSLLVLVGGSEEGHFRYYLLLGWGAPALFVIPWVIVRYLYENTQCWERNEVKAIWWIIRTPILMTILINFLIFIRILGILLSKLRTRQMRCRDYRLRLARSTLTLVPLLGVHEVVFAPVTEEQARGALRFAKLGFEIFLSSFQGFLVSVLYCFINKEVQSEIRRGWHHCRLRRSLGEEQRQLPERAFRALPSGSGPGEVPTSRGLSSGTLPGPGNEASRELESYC
Kind of test: cAMP synthesis functional assay (firefly luciferase reporter in HEK293 cells), GIP receptor. The note with it: for pEC50: GIP Receptor EC50, cAMP luciferase reporter assay as in Example 16. A general note: A reporter such as luciferase makes a cellular process visible.

The target in a further test is T2, glucagon receptor (Homo sapiens, UniProt P47871).
T2 construct: expressed in transfected cells; host or cells: HEK293
T2 sequence (P47871 26-477): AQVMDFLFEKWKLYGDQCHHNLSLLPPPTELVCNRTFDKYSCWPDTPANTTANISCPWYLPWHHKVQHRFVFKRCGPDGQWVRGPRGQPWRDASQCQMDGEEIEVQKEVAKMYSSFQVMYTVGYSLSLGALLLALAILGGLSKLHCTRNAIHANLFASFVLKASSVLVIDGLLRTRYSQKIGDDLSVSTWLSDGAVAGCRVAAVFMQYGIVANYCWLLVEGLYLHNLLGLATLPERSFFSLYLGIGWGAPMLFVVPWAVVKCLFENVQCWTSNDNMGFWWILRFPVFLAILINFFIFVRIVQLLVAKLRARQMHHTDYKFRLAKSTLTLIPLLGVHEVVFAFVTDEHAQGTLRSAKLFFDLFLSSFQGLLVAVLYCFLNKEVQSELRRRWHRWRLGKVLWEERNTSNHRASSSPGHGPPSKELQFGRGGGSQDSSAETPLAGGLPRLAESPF
Briefly: cAMP synthesis functional assay (firefly luciferase reporter in HEK293 cells), glucagon receptor.

The target in the next test is T3, GLP-1 receptor (Homo sapiens, UniProt P43220).
T3 construct: expressed in transfected cells; host or cells: HEK293
T3 sequence (P43220 24-463, species assumed): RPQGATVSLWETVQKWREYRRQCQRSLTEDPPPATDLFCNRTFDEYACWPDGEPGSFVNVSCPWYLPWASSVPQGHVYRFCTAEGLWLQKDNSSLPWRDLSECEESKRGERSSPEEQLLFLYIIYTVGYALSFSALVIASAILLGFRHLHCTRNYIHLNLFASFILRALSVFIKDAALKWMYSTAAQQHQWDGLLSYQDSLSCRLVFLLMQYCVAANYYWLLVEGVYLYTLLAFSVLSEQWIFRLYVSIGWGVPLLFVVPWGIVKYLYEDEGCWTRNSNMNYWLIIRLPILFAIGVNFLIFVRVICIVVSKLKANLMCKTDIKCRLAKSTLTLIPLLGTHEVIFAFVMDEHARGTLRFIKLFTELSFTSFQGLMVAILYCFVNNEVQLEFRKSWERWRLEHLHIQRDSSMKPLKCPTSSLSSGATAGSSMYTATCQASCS
Briefly: cAMP synthesis functional assay (firefly luciferase reporter in HEK293 cells), GLP-1 receptor. The note with it: for pEC50: GLP-1 Receptor EC50, cAMP luciferase reporter assay as in Example 16.

The subject of test [1] is glucagon receptor, GLP-1 receptor or GIP receptor. Briefly: Agonist profile across receptors assigned from the cAMP reporter assay data. The note with it: assigned from the in vitro EC50 data of Tables 1-4.
Where [2] appears, read: Table 1, relative to the native hormone of the indicated receptor.
Setting [3] is: relative to the standard (Std.) EC50 of the same run.

pEC50: −log10 of the molar value. Where a SMILES comes first, the peptide text is derived from it. Bridges are numbered along the chain shown (N, C = ends). [ ]: non-standard residue; d: D form. Dab = NCC[C@H](N)C(=O)O; Aib = CC(C)(N)C(=O)O

As to `CC[C@H](C)[C@H](NC(=O)[C@H](Cc1ccccc1)NC(=O)[C@H](CCC(=O)O)NC(=O)[C@@H]1CCCCNC(=O)CC[C@H](NC(=O)[C@H](CC(=O)O)NC(=O)[C@H](CC(C)C)NC(=O)[C@H](Cc2ccc(O)cc2)NC(=O)[C@H](CCCCN)NC(=O)[C@H](CO)NC(=O)[C@H](Cc2ccc(O)cc2)NC(=O)[C@H](CC(=O)O)NC(=O)[C@H](CO)NC(=O)[C@@H](NC(=O)[C@H](Cc2ccccc2)NC(=O)[C@@H](NC(=O)CNC(=O)[C@H](CCC(N)=O)NC(=O)[C@H](CO)NC(=O)[C@@H](N)Cc2ccc(O)cc2)[C@@H](C)O)[C@@H](C)O)C(=O)N[C@@H](CCC(N)=O)C(=O)N[C@@H](C)C(=O)N[C@@H](C)C(=O)N1)C(=O)N[C@@H](C)C(=O)N[C@@H](Cc1c[nH]c2ccccc12)C(=O)N[C@@H](CC(C)C)C(=O)N[C@@H](CC(C)C)C(=O)N[C@@H](C)C(=O)NCC(=O)NCC(=O)N1CCC[C@H]1C(=O)N[C@@H](CO)C(=O)N[C@@H](CO)C(=O)NCC(=O)N[C@@H](C)C(=O)N1CCC[C@H]1C(=O)N1CCC[C@H]1C(=O)N1CCC[C@H]1C(=O)N[C@@H](CO)C(N)=O` [mt-151] (H-YSQGTFTSDYSKYLDEQAAKEFIAWLLAGGPSSGAPPPS-NH2; lactam 16-20; N-terminus assumed), the “GIP Receptor relative activity” value at GIP receptor (setting [2]) is recorded as 7.28%. Also, the “Glucagon Receptor relative activity” value at glucagon receptor (setting [2]) is 30.16%. Further, on GLP-1 receptor (setting [2]), the “GLP-1 Receptor relative activity” value worked out at 30.16%. In addition, in test [1], the “receptor activity profile (glucagon / GLP-1 / GIP agonism)” value is given as “exemplary GLP-1/GIP/glucagon triagonist peptides”.
With `CCCCCCCCCCCCCCCC(=O)NCCCC[C@H](NC(=O)[C@H](CO)NC(=O)[C@@H]1CCCN1C(=O)[C@@H]1CCCN1C(=O)[C@@H]1CCCN1C(=O)[C@H](C)NC(=O)CNC(=O)[C@H](CO)NC(=O)[C@H](CO)NC(=O)[C@@H]1CCCN1C(=O)CNC(=O)CNC(=O)[C@H](C)NC(=O)[C@H](CC(C)C)NC(=O)[C@H](CC(C)C)NC(=O)[C@H](Cc1c[nH]c2ccccc12)NC(=O)[C@H](CS)NC(=O)[C@@H](NC(=O)[C@H](Cc1ccccc1)NC(=O)[C@H](CCC(=O)O)NC(=O)C(C)(C)NC(=O)[C@H](C)NC(=O)[C@H](C)NC(=O)[C@H](CCC(N)=O)NC(=O)[C@H](CCCCN)NC(=O)[C@H](CC(=O)O)NC(=O)[C@H](CC(C)C)NC(=O)[C@H](Cc1ccc(O)cc1)NC(=O)[C@@H](NC(=O)[C@H](CO)NC(=O)[C@H](Cc1ccc(O)cc1)NC(=O)[C@H](CC(=O)O)NC(=O)[C@H](CO)NC(=O)[C@@H](NC(=O)[C@H](Cc1ccccc1)NC(=O)[C@@H](NC(=O)CNC(=O)[C@H](CCC(=O)O)NC(=O)C(C)(C)NC(=O)[C@@H](N)Cc1ccc(O)cc1)[C@@H](C)O)[C@@H](C)O)[C@@H](C)CC)C(C)C)C(N)=O` [mt-296], the “GIP Receptor relative activity” value at GIP receptor (setting [3]) was 211.69%. Moreover, the pEC50 at glucagon receptor (Glucagon Receptor EC50, cAMP luciferase reporter assay as in Example 16) is 9.38; on GLP-1 receptor it was 10.91. At glucagon receptor (setting [3]), the “Glucagon Receptor relative activity” value worked out at 11.34%. The “GLP-1 Receptor relative activity” value at GLP-1 receptor (setting [3]) is recorded as 130.65%. Besides, the “receptor activity profile (glucagon / GLP-1 / GIP agonism)” value in test [1] is “exhibited activity at the GIP, GLP-1, and glucagon receptors”.
Regarding `CC[C@H](C)[C@H](NC(=O)[C@H](CO)NC(=O)[C@H](Cc1ccc(O)cc1)NC(=O)[C@H](CC(=O)O)NC(=O)[C@H](CO)NC(=O)[C@@H](NC(=O)[C@H](Cc1ccccc1)NC(=O)[C@@H](NC(=O)CNC(=O)[C@H](CCC(N)=O)NC(=O)C(C)(C)NC(=O)[C@@H](N)Cc1ccc(O)cc1)[C@@H](C)O)[C@@H](C)O)C(=O)N[C@@H](Cc1ccc(O)cc1)C(=O)N[C@@H](CC(C)C)C(=O)N[C@@H](CC(=O)O)C(=O)N[C@@H](CCN)C(=O)N[C@@H](CCC(N)=O)C(=O)N[C@@H](C)C(=O)N[C@@H](C)C(=O)NC(C)(C)C(=O)N[C@@H](CCC(=O)O)C(=O)N[C@@H](Cc1ccccc1)C(=O)N[C@H](C(=O)N[C@@H](CC(N)=O)C(=O)N[C@@H](Cc1c[nH]c2ccccc12)C(=O)N[C@@H](CC(C)C)C(=O)N[C@@H](CC(C)C)C(=O)N[C@@H](C)C(=O)NCC(=O)NCC(=O)N1CCC[C@H]1C(=O)N[C@@H](CO)C(=O)N[C@@H](CO)C(=O)NCC(=O)N[C@@H](C)C(=O)N1CCC[C@H]1C(=O)N1CCC[C@H]1C(=O)N1CCC[C@H]1C(=O)N[C@@H](CO)C(=O)N[C@@H](CS)C(N)=O)C(C)C` [mt-276] (H-Y[Aib]QGTFTSDYSIYLD[Dab]QAA[Aib]EFVNWLLAGGPSSGAPPPSC-NH2; N-terminus assumed), the pEC50 on GIP receptor is 11.10. In addition, the “GIP Receptor relative activity” value at GIP receptor (setting [3]) came out at 173.75%. On glucagon receptor (setting [3]), the “Glucagon Receptor relative activity” value is 77.65%. Also, on GLP-1 receptor (setting [3]), the “GLP-1 Receptor relative activity” value is 107.58%. In addition, the “receptor activity profile (glucagon / GLP-1 / GIP agonism)” value in test [1] was “exhibited activity at the GIP, GLP-1, and glucagon receptors”.
For `CC[C@H](C)[C@H](NC(=O)[C@H](CO)NC(=O)[C@H](Cc1ccc(O)cc1)NC(=O)[C@H](CC(=O)O)NC(=O)[C@H](CO)NC(=O)[C@@H](NC(=O)[C@H](Cc1ccccc1)NC(=O)[C@@H](NC(=O)CNC(=O)[C@H](CCC(N)=O)NC(=O)C(C)(C)NC(=O)[C@@H](N)Cc1ccc(O)cc1)[C@@H](C)O)[C@@H](C)O)C(=O)N[C@@H](Cc1ccc(O)cc1)C(=O)N[C@@H](CC(C)C)C(=O)N[C@@H](CC(=O)O)C(=O)N[C@H]1CCC(=O)NCCCC[C@@H](C(=O)N[C@@H](CCC(=O)O)C(=O)N[C@@H](Cc2ccccc2)C(=O)N[C@H](C(=O)N[C@@H](CS)C(=O)N[C@@H](Cc2c[nH]c3ccccc23)C(=O)N[C@@H](CC(C)C)C(=O)N[C@@H](CC(C)C)C(=O)N[C@@H](C)C(=O)NCC(=O)NCC(=O)N2CCC[C@H]2C(=O)N[C@@H](CO)C(=O)N[C@@H](CO)C(=O)NCC(=O)N[C@@H](C)C(=O)N2CCC[C@H]2C(=O)N2CCC[C@H]2C(=O)N2CCC[C@H]2C(=O)N[C@@H](CO)C(N)=O)C(C)C)NC(=O)[C@H](C)NC(=O)[C@H](C)NC(=O)[C@H](CCC(N)=O)NC1=O` [mt-158] (H-Y[Aib]QGTFTSDYSIYLDEQAAKEFVCWLLAGGPSSGAPPPS-NH2; lactam 16-20; N-terminus assumed), the “GIP Receptor relative activity” value at GIP receptor (setting [2]) is given as 17.82%. Besides, on glucagon receptor (setting [2]), the “Glucagon Receptor relative activity” value was determined as 14.90%. At GLP-1 receptor (setting [2]), the “GLP-1 Receptor relative activity” value is 102.94%. For the same compound, in test [1], the “receptor activity profile (glucagon / GLP-1 / GIP agonism)” value is on record as “exemplary GLP-1/GIP/glucagon triagonist peptides”.
As to `CC[C@H](C)[C@H](NC(=O)[C@H](CO)NC(=O)[C@H](Cc1ccc(O)cc1)NC(=O)[C@H](CC(=O)O)NC(=O)[C@H](CO)NC(=O)[C@@H](NC(=O)[C@H](Cc1ccccc1)NC(=O)[C@@H](NC(=O)CNC(=O)[C@H](CCC(N)=O)NC(=O)C(C)(C)NC(=O)[C@@H](N)Cc1ccc(O)cc1)[C@@H](C)O)[C@@H](C)O)C(=O)N[C@@H](Cc1ccc(O)cc1)C(=O)N[C@@H](CC(C)C)C(=O)N[C@@H](CC(=O)O)C(=O)N[C@@H](CCCCN)C(=O)N[C@@H](CCC(N)=O)C(=O)N[C@@H](C)C(=O)N[C@@H](C)C(=O)NC(C)(C)C(=O)N[C@@H](CCC(=O)O)C(=O)N[C@@H](Cc1ccccc1)C(=O)N[C@H](C(=O)N[C@@H](CS)C(=O)N[C@@H](Cc1c[nH]c2ccccc12)C(=O)N[C@@H](CC(C)C)C(=O)N[C@@H](CC(C)C)C(=O)N[C@@H](C)C(=O)NCC(N)=O)C(C)C` [mt-257] (H-Y[Aib]QGTFTSDYSIYLDKQAA[Aib]EFVCWLLAG-NH2; N-terminus assumed), the pEC50 was 10.63 at GIP receptor and 10.52 on GLP-1 receptor. In addition, at GIP receptor (setting [3]), the “GIP Receptor relative activity” value is 41.38%. The “Glucagon Receptor relative activity” value at glucagon receptor (setting [3]) worked out at 32.53%. Besides, at GLP-1 receptor (setting [3]), the “GLP-1 Receptor relative activity” value is reported as 39.27%. For the same compound, the “receptor activity profile (glucagon / GLP-1 / GIP agonism)” value in test [1] was “exhibited activity at the GIP, GLP-1, and glucagon receptors”.
As for `CC[C@H](C)[C@H](NC(=O)[C@H](CO)NC(=O)[C@H](Cc1ccc(O)cc1)NC(=O)[C@H](CC(=O)O)NC(=O)[C@H](CO)NC(=O)[C@@H](NC(=O)[C@H](Cc1ccccc1)NC(=O)[C@@H](NC(=O)CNC(=O)[C@H](CCC(N)=O)NC(=O)C(C)(C)NC(=O)[C@@H](N)Cc1ccc(O)cc1)[C@@H](C)O)[C@@H](C)O)C(=O)N[C@@H](Cc1ccc(O)cc1)C(=O)N[C@@H](CC(C)C)C(=O)N[C@@H](CC(=O)O)C(=O)N[C@@H](CCCN)C(=O)N[C@@H](CCC(N)=O)C(=O)N[C@@H](C)C(=O)N[C@@H](C)C(=O)NC(C)(C)C(=O)N[C@@H](CCC(=O)O)C(=O)N[C@@H](Cc1ccccc1)C(=O)N[C@H](C(=O)N[C@@H](CC(N)=O)C(=O)N[C@@H](Cc1c[nH]c2ccccc12)C(=O)N[C@@H](CC(C)C)C(=O)N[C@@H](CC(C)C)C(=O)N[C@@H](C)C(=O)NCC(=O)NCC(=O)N1CCC[C@H]1C(=O)N[C@@H](CO)C(=O)N[C@@H](CO)C(=O)NCC(=O)N[C@@H](C)C(=O)N1CCC[C@H]1C(=O)N1CCC[C@H]1C(=O)N1CCC[C@H]1C(=O)N[C@@H](CO)C(=O)N[C@@H](CS)C(N)=O)C(C)C` [mt-275], the “GIP Receptor relative activity” value at GIP receptor (setting [3]) amounted to 112.10%. The “Glucagon Receptor relative activity” value on glucagon receptor (setting [3]) was 62.15%. Moreover, the pEC50 on GLP-1 receptor was 11.17. In addition, the “GLP-1 Receptor relative activity” value on GLP-1 receptor (setting [3]) was determined as 104.41%. The “receptor activity profile (glucagon / GLP-1 / GIP agonism)” value in test [1] is “exhibited activity at the GIP, GLP-1, and glucagon receptors”.
